Measurements: PubChem BioAssay (NCI)
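Cells were grown in 96-well plates and exposed to each compound for 48 hours at five concentrations; endpoints were interpolated linearly between bracketing concentrations, or set to the highest concentration if not reached. TGI marks complete inhibition of growth.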

Experiments:
Assay in all cases: growth of human tumour cells (NCI), 48 h
786-0 renal = tested on: 786-0 renal
A498 renal = tested on: A498 renal
A549 NSCLC = tested on: A549 NSCLC
ACHN renal = tested on: ACHN renal
BT-549 breast = tested on: BT-549 breast
CAKI-1 renal = tested on: CAKI-1 renal
CCRF-CEM leukemia = tested on: CCRF-CEM leukemia
COLO 205 colon = tested on: COLO 205 colon
DU-145 prostate = tested on: DU-145 prostate
EKVX NSCLC = tested on: EKVX NSCLC
HCC-2998 colon = tested on: HCC-2998 colon
HCT-116 colon = tested on: HCT-116 colon
HCT-15 colon = tested on: HCT-15 colon
HL-60(TB) leukemia = tested on: HL-60(TB) leukemia
HOP-62 NSCLC = tested on: HOP-62 NSCLC
HOP-92 NSCLC = tested on: HOP-92 NSCLC
HS 578T breast = tested on: HS 578T breast
HT29 colon = tested on: HT29 colon
IGROV1 ovarian = tested on: IGROV1 ovarian
K-562 leukemia = tested on: K-562 leukemia
KM12 colon = tested on: KM12 colon
LOX IMVI melanoma = tested on: LOX IMVI melanoma
M14 melanoma = tested on: M14 melanoma
MALME-3M melanoma = tested on: MALME-3M melanoma
MCF7 breast = tested on: MCF7 breast
MDA-MB-231 breast = tested on: MDA-MB-231 breast
MDA-MB-435 = tested on: MDA-MB-435
MDA-N = tested on: MDA-N
MOLT-4 leukemia = tested on: MOLT-4 leukemia
NCI-H226 lung = tested on: NCI-H226 lung
NCI-H23 lung = tested on: NCI-H23 lung
NCI-H460 lung = tested on: NCI-H460 lung
NCI-H522 lung = tested on: NCI-H522 lung
NCI/ADR-RES ovarian = tested on: NCI/ADR-RES ovarian
OVCAR-3 ovarian = tested on: OVCAR-3 ovarian
OVCAR-4 ovarian = tested on: OVCAR-4 ovarian
OVCAR-5 ovarian = tested on: OVCAR-5 ovarian
OVCAR-8 ovarian = tested on: OVCAR-8 ovarian
PC-3 prostate = tested on: PC-3 prostate
RPMI-8226 leukemia = tested on: RPMI-8226 leukemia
RXF 393 renal = tested on: RXF 393 renal
SF-268 CNS = tested on: SF-268 CNS
SF-295 CNS = tested on: SF-295 CNS
SF-539 CNS = tested on: SF-539 CNS
SK-MEL-2 melanoma = tested on: SK-MEL-2 melanoma
SK-MEL-28 melanoma = tested on: SK-MEL-28 melanoma
SK-MEL-5 melanoma = tested on: SK-MEL-5 melanoma
SK-OV-3 ovarian = tested on: SK-OV-3 ovarian
SN12C renal = tested on: SN12C renal
SNB-19 CNS = tested on: SNB-19 CNS
SNB-75 CNS = tested on: SNB-75 CNS
SR leukemia = tested on: SR leukemia
SW-620 colon = tested on: SW-620 colon
T-47D breast = tested on: T-47D breast
TK-10 renal = tested on: TK-10 renal
U251 CNS = tested on: U251 CNS
UACC-257 melanoma = tested on: UACC-257 melanoma
UACC-62 melanoma = tested on: UACC-62 melanoma
UO-31 renal = tested on: UO-31 renal

## CC(C)(C)N1Cc2ccccc2/C(=C/Sc2ccccc2)C1=O
786-0 renal
  TGI: 24.8 µM
A498 renal
  TGI: 35.4 µM
A549 NSCLC
  TGI: 37.6 µM
ACHN renal
  TGI: 32 µM
BT-549 breast
  TGI: 20.1 µM
CAKI-1 renal
  TGI: 30.7 µM
CCRF-CEM leukemia
  TGI: > 100 µM
COLO 205 colon
  TGI: 39 µM
DU-145 prostate
  TGI: 32.7 µM
EKVX NSCLC
  TGI: 34.2 µM
HCC-2998 colon
  TGI: 34.4 µM
HCT-116 colon
  TGI: 19.8 µM
HCT-15 colon
  TGI: 37 µM
HL-60(TB) leukemia
  TGI: 39.8 µM
HOP-62 NSCLC
  TGI: 33.8 µM
HOP-92 NSCLC
  TGI: 27.8 µM
HS 578T breast
  TGI: 41.2 µM
HT29 colon
  TGI: 35.6 µM
IGROV1 ovarian
  TGI: 24 µM
K-562 leukemia
  TGI: > 100 µM
KM12 colon
  TGI: 31.4 µM
LOX IMVI melanoma
  TGI: 11.3 µM
M14 melanoma
  TGI: 25.2 µM
MALME-3M melanoma
  TGI: 28.7 µM
MCF7 breast
  TGI: 24.3 µM
MDA-MB-231 breast
  TGI: 33.9 µM
MDA-MB-435
  TGI: 20.1 µM
MDA-N
  TGI: 21.8 µM
MOLT-4 leukemia
  TGI: 48.4 µM
NCI-H226 lung
  TGI: 25.9 µM
NCI-H23 lung
  TGI: 24.2 µM
NCI-H460 lung
  TGI: 30 µM
NCI-H522 lung
  TGI: 11.4 µM
NCI/ADR-RES ovarian
  TGI: 33.6 µM
OVCAR-3 ovarian
  TGI: 25.1 µM
OVCAR-4 ovarian
  TGI: 19.6 µM
OVCAR-5 ovarian
  TGI: 39.8 µM
OVCAR-8 ovarian
  TGI: 22.3 µM
PC-3 prostate
  TGI: 26.6 µM
RPMI-8226 leukemia
  TGI: 26 µM
RXF 393 renal
  TGI: 34 µM
SF-268 CNS
  TGI: 20.2 µM
SF-295 CNS
  TGI: 33.8 µM
SF-539 CNS
  TGI: 24.3 µM
SK-MEL-2 melanoma
  TGI: 31.4 µM
SK-MEL-28 melanoma
  TGI: 33.7 µM
SK-MEL-5 melanoma
  TGI: 20.2 µM
SK-OV-3 ovarian
  TGI: 31.2 µM
SN12C renal
  TGI: 23.8 µM
SNB-19 CNS
  TGI: 30.9 µM
SNB-75 CNS
  TGI: 31.9 µM
SR leukemia
  TGI: > 39.4 µM
SW-620 colon
  TGI: 27.4 µM
T-47D breast
  TGI: 45.3 µM
TK-10 renal
  TGI: 34.8 µM
U251 CNS
  TGI: 27.3 µM
UACC-257 melanoma
  TGI: 31.2 µM
UACC-62 melanoma
  TGI: 24.3 µM
UO-31 renal
  TGI: 24.8 µM

## COC1/C=C/C(C)C(C(C)C(OC)C(C)CCC(=O)C(C)C(CCC(=O)O)OC)OC(=O)/C=C/C=C(\C)CC(OC)CC2=CC(=O)O[C@@H](C(C)C(OC)CC(OC)/C=C/C(C)C(OC)C1)[C@H]2O (some centres not stated)
786-0 renal
  TGI: > 4.55 µM
A498 renal
  TGI: 0.343 µM
A549 NSCLC
  TGI: > 5 µM
ACHN renal
  TGI: 2.93 µM
BT-549 breast
  TGI: 2.85 µM
CAKI-1 renal
  TGI: 0.934 µM
CCRF-CEM leukemia
  TGI: > 1.58 µM
COLO 205 colon
  TGI: > 5 µM
DU-145 prostate
  TGI: > 5 µM
EKVX NSCLC
  TGI: > 5 µM
HCC-2998 colon
  TGI: > 5 µM
HCT-116 colon
  TGI: > 5 µM
HCT-15 colon
  TGI: > 5 µM
HL-60(TB) leukemia
  TGI: 1 µM
HOP-62 NSCLC
  TGI: > 5 µM
HOP-92 NSCLC
  TGI: 1.36 µM
HS 578T breast
  TGI: > 5 µM
HT29 colon
  TGI: > 5 µM
IGROV1 ovarian
  TGI: 0.948 µM
K-562 leukemia
  TGI: > 5 µM
KM12 colon
  TGI: > 5 µM
LOX IMVI melanoma
  TGI: > 3.67 µM
M14 melanoma
  TGI: > 5 µM
MALME-3M melanoma
  TGI: 2.94 µM
MCF7 breast
  TGI: > 5 µM
MDA-MB-231 breast
  TGI: 1.78 µM
MDA-MB-435
  TGI: > 5 µM
MDA-N
  TGI: > 5 µM
MOLT-4 leukemia
  TGI: > 3.93 µM
NCI-H226 lung
  TGI: 2.13 µM
NCI-H23 lung
  TGI: > 5 µM
NCI-H460 lung
  TGI: > 5 µM
NCI-H522 lung
  TGI: > 5 µM
NCI/ADR-RES ovarian
  TGI: > 5 µM
OVCAR-3 ovarian
  TGI: 1.72 µM
OVCAR-4 ovarian
  TGI: > 5 µM
OVCAR-5 ovarian
  TGI: > 5 µM
OVCAR-8 ovarian
  TGI: > 5 µM
PC-3 prostate
  TGI: 2.82 µM
RPMI-8226 leukemia
  TGI: > 3.94 µM
RXF 393 renal
  TGI: 1.49 µM
SF-268 CNS
  TGI: > 2.47 µM
SF-295 CNS
  TGI: > 5 µM
SF-539 CNS
  TGI: > 5 µM
SK-MEL-2 melanoma
  TGI: 1.89 µM
SK-MEL-28 melanoma
  TGI: > 3.29 µM
SK-MEL-5 melanoma
  TGI: 2.88 µM
SK-OV-3 ovarian
  TGI: 4.06 µM
SN12C renal
  TGI: > 5 µM
SNB-19 CNS
  TGI: > 5 µM
SNB-75 CNS
  TGI: 2.22 µM
SR leukemia
  TGI: > 4.14 µM
SW-620 colon
  TGI: > 5 µM
T-47D breast
  TGI: > 5 µM
TK-10 renal
  TGI: > 5 µM
U251 CNS
  TGI: 1.39 µM
UACC-257 melanoma
  TGI: > 3.9 µM
UACC-62 melanoma
  TGI: > 4.31 µM
